# Experiments:
# [1] = in vivo; cited from earlier work
# α4β2 nAChRs [2] = target: T1, α4β2 nAChRs (Rattus norvegicus, UniProt P09483+P12390); test: radioligand ([3H]epibatidine) competition binding, α4β2 nAChR
# T1 construct: expressed in transfected cells; host or cells: HEK293 (KXα4β2)
# Protocol: (§1) A. Cell Lines and Cell Culture. The cell lines KXα3β4R2, expressing rat α3β4 nAChRs, and KXα4β2, expressing rat α4β2 nAChRs, were established previously by stably transfecting human embryonic kidney 293 cells with combinations of rat nAChR subunit genes. These cell lines are maintained in minimum essential medium supplemented with 10% fetal bovine serum, 100 units/mL penicillin G, […] streptomycin, and 0.7 mg/mL G418 (Geneticin) at 37° C. with 5% CO2 in a humidified incubator. The cell line SH-EP1-pcDNA-hα4β2, expressing human α4β2 nAChRs, was described previously and are available. The SH-EP1-pcDNA-hα4β2 cells are grown in Dulbecco's modified Eagle's medium supplemented with 5% fetal bovine serum, 10% horse serum, 100 units/mL penicillin G, 100 μg/mL streptomycin, 320 μg/mL hygromycin B (Calbiochem, La Jolla, Calif.), 400 units/mL Zeocin at 37° C. with 5% CO2 in a humidified incubator.
# B. nAChR Binding Affinity and Sub-type Selectivity Assay. The Ki values of compounds for binding to α3β4, α4β2 and other nAChR sub-types will be measured by competition experiments with [3H]epibatidine or other labeled ligands. Not intending to be bound by any one approach, one radioligand binding assay used for measuring the binding of [3H]epibatidine to nAChRs is described below.
# In brief, cultured cells at above about 80% confluence will be removed from their flasks (80 cm^2) with a disposable cell scraper and will be placed in 10 mL of 50 mM Tris-HCl buffer, pH 7.4, 4° C. The cell suspension will be centrifuged at 10,000 g for 5 min and the pellet will be collected. For cells undergoing prolonged treatment with nicotinic agonists during culturing, the pellet will be washed two more times by centrifugation in fresh buffer to remove residual drug. The cell pellet will then homogenized in 10 mL of buffer with a Polytron homogenizer (12-mm aggregate, 26,000 rpm, 20 s; model PT2100; Kinematica, Basel, Switzerland) and will be centrifuged at 36,000 g for 10 min at 4° C. The membrane pellet will be resuspended in fresh buffer, and aliquots of the membrane preparation equivalent to 30 to 200 μg of protein will be used for binding assays. The concentration of [3H]epibatidine used will be 100 pM for competition binding assays and 2.4 nM, which is a saturating concentration for the α4β2 receptor subtype, for measuring receptor density. Nonspecific binding will be assessed in parallel incubations in the presence of 300 μM nicotine. Bound and free ligands will be separated by vacuum filtration through Whatman GF/C filters treated with 0.5% polyethylenimine. The filter-retained radioactivity will be measured by liquid scintillation counting. […] Data from saturation and competition binding assays will be analyzed using Prism 4 (GraphPad Software, San Diego, Calif.).
# α3β4 nAChRs [3] = target: T2, α3β4 nAChRs (Rattus norvegicus, UniProt P04757+P12392); test: radioligand ([3H]epibatidine) competition binding, α3β4 nAChR
# T2 construct: expressed in transfected cells; host or cells: HEK293 (KXα3β4R2)
# Protocol: as §1, with “The SH-EP1-pcDNA-hα4β2 cells are grown in Dulbecco's modified Eagle's medium supplemented with 5% fetal bovine serum, 10% horse serum, 100 units/mL penicillin G, 100 μg/mL streptomycin, 320 μg/mL hygromycin B (Calbiochem, La Jolla, Calif.), 400 units/mL Zeocin at 37° C. with 5% CO2 in a humidified incubator.” left out
# B. nAChR Binding Affinity and Sub-type Selectivity Assay. The Ki values of compounds for binding to α3β4, α4β2 and other nAChR sub-types will be measured by competition experiments with [3H]epibatidine or other labeled ligands. […]
# In brief, cultured cells at above about 80% confluence will be removed from their flasks (80 cm^2) with a disposable cell scraper and will be placed in 10 mL of 50 mM Tris-HCl buffer, pH 7.4, 4° C. […] Nonspecific binding will be assessed in parallel incubations in the presence of 300 μM nicotine. […] The filter-retained radioactivity will be measured by liquid scintillation counting. […] Data from saturation and competition binding assays will be analyzed using Prism 4 (GraphPad Software, San Diego, Calif.).
# α4β2 nAChRs [4] = target: T3, α4β2 nAChRs (Homo sapiens, UniProt P17787+P43681); test: desensitizer test: 86Rb+ efflux after 10 min preincubation, α4β2 nAChR; format: cell-based
# T3 construct: expressed in transfected cells; host or cells: SH-EP1 (SH-EP1-pcDNA-hα4β2)
# Protocol: as §1, with “The SH-EP1-pcDNA-hα4β2 cells are grown in Dulbecco's modified Eagle's medium supplemented with 5% fetal bovine serum, 10% horse serum, 100 units/mL penicillin G, 100 μg/mL streptomycin, 320 μg/mL hygromycin B (Calbiochem, La Jolla, Calif.), 400 units/mL Zeocin at 37° C. with 5% CO2 in a humidified incubator.” left out
# C. nAChR Functional Assay. The agonist, antagonist and/or desitizer activity of compounds of the invention can be evaluated by measuring its blockade of nicotine-stimulated 86Rb+ efflux. […]
# In brief, cells will be plated into 24-well plates coated with poly-D-lysine. […] Radioactivity of assay samples and lysates will be measured by liquid scintillation counting. Total loading (cpm) will be calculated as the sum of the assay sample and the lysate of each well. The amount of 86Rb+ efflux will be expressed as a percentage of 86Rb+ loaded. […] IC50 values will be determined by nonlinear least-squares regression analyses (GraphPad Software).
# D. Measurement of Desensitization. Not intending to be bound by any one method, desensitization may be measured, for example, by the method described below. […]
# [5] = stability of the isolated HCl salt on exposure to air; format: physicochemical; conditions: white solid, larger scale
# Excerpt: A gram-scale synthesis of sazetidine A is outlined in FIG. 1a. The Boc-protected azidityl methyl alcohol 2 and 3-bromo-5-hydroxy pyridine (3) are both commercially available. Treatment with PPh3 and DEAD according to the Mitsunobu protocol formed ether derivative 4 in 70% yield. Palladium-mediated coupling of the bromo-substituted pyridine 4 with 5-hexyn-1-ol under modified Sonogashira conditions furnished Boc-protected sazetidine A in 73% yield. Deprotection of the Boc-group with HCl was expected to give sazetidine A in salt form as published in the literature.
# α3β4 nAChRs [6] = target: T2, α3β4 nAChRs; conditions: radioligand binding assays; cited from earlier work
# α7 nAChRs = conditions: radioligand binding assays; cited from earlier work
# α4β2 nAChRs [7] = target: T3, α4β2 nAChRs; conditions: preincubated for 10 min with the cells; complete desensitization; cited from earlier work
# α3β4 nAChRs [8] = target: T2, α3β4 nAChRs; conditions: concentrations up to 10 μM, even after preincubation; cited from earlier work
# α4β2 nAChRs [9] = target: T3, α4β2 nAChRs; conditions: cited from earlier work
SMILES,analgesic potency [1],Ki (α4β2 nAChRs [2]),decrease in Ki relative to sazetidine A (α4β2 nAChRs [2]; triazole in place of the alkynyl group),"selectivity for the α4β2 receptor (α4β2 nAChRs [2]; α4β2 over α3β4, from Ki values)",Ki (α3β4 nAChRs [3]),IC50 (α4β2 nAChRs [4]),stability on exposure to air [5],"selectivity, affinity at α4β2 compared to α3β4 nAChRs (α3β4 nAChRs [6])","selectivity, affinity at α4β2 compared to α7 nAChRs (α7 nAChRs)",EC50 (α4β2 nAChRs [7]),effect on the function of α3β4 nAChRs (α3β4 nAChRs [8]),agonist activity at α4β2 nAChRs (α4β2 nAChRs [9]; added alone),"antagonist activity at α4β2 receptors (α4β2 nAChRs [9]; added simultaneously with an agonist, such as nicotine)"
Clc1ccc(C2CC3CCC2N3)cn1 (centres unmarked) [Epibatidine],~200 times that of morphine,–,–,–,–,–,–,–,–,–,–,–,–
OCCCCc1cn(-c2cncc(OCC3CCN3)c2)nn1 (centres unmarked) [triazetidine O],–,0.00351 µM,approximately 10 fold,"17,692 fold",62 µM,0.1 µM,–,–,–,–,–,–,–
OCCCCC#Cc1cncc(OCC2CCN2)c1 (centres unmarked) [sazetidine A],–,0.00041 µM,–,–,–,–,decomposition of the material to a yellow-brown wet solid,"greater than 10,000 fold","> 3,500 fold",0.026 µM,no effect,low agonist activity,no typical antagonist activity

# Reference: patent US20110281836A1, “Silent desensitizers of neuronal NACHR and methods of use thereof” (priority 2008, published 2011)
